Patent US20260283977A1, “ADIPOCYTE GROWTH INHIBITOR” (WATANABE OYSTER LABORATORY CO., LTD., priority 2023, published 2026)

The molecules below were run on 3T3-L1 adipocytes (assay: Adipogenesis in 3T3-L1 adipocytes cultured with inhibitors of intracellular signaling pathways (AdipoRed)). Settings: added two days after differentiation, cultured two days; genistein 1 or 10 μM, Wortmannin 10 or 100 nM, PD98059 1 or 10 μM, Bay 11-7082 1 or 10 nM; FIG. 6A-D.
Assay type: cell-based, mouse
Procedure: In yet another experiment, to search for the involvement of intracellular signaling factors, the culture fluid was substituted with a culture fluid containing DMEM, which contained 10% FBS and insulin (10 μg/ml), and a vehicle (1% ethanol) or DHMBA (1 or 10 μM) two days after the differentiation culture. The cells were cultured for another two days in a culture fluid containing signaling inhibitory factors, such as genistein (1 or 10 μM), Wortmannin (10 or 100 nM), PD98059 (1 or 10 μM), or Bay 11-7082 (1 or 10 nM). After the cell culture, the amount of intracellular lipid (triglyceride) formation was quantified using AdipoRed Assay Reagent (Lonza, Walkersville, MD, USA) [19 to 21]. Fluorescence was measured at an excitation of 485 nm and an emission of 570 nm using a 96-well plate reader (μQuant, Bio-Tek Instruments).
For `Cc1ccc(S(=O)(=O)/C=C/C#N)cc1` [Bay 11-7082, reference compound], the “Lipogenesis/adipogenesis with the inhibitor alone” value was “inhibited”.
With `COc1cccc(-c2cc(=O)c3ccccc3o2)c1N` [PD98059, reference compound] the “Lipogenesis/adipogenesis with the inhibitor alone” value was “inhibited”.
For `COC[C@H]1OC(=O)c2coc3c2[C@@]1(C)C1=C(C3=O)[C@@H]2CCC(=O)[C@@]2(C)C[C@H]1OC(C)=O` [Wortmannin, reference compound], the “Lipogenesis/adipogenesis with the inhibitor alone” value was “inhibited”.
`O=c1c(-c2ccc(O)cc2)coc2cc(O)cc(O)c12` [genistein, reference compound] was tested, and the “Lipogenesis/adipogenesis with the inhibitor alone” value was “not altered”.
